Measured values reported in patent US20250186410A1, “DUAL INHIBITORS OF TRYPTOPHAN DIOXYGENASES (IDO1 AND TDO) AND THEIR USE IN THERAPY” (ANTIDO THERAPEUTICS INTERNATIONAL SÀRL, priority 2022, published 2025).

What was measured:
[1] = tested on: kynurenine (KYN) and tryptophan (TRP) levels in mouse serum; assay: KYN and TRP measurements, LLC-bearing mice; assay type: in vivo; conditions: AT-0174 170 mg/kg, epacadostat 200 mg/kg P.O. daily
Protocol: (§1) LLC or LLC-CR (1×10^6) cells were subcutaneously injected into the flank of C57B6/J male and female mice (5 mice per group, age 6-8 weeks, Jackson laboratory) and allowed to grow for 3 days (average tumor size=50 mm^3) before being treated with the selective IDO1 inhibitor epacadostat at 200 mg/kg daily or with AT-0174 at 170 mg/kg daily (a dual inhibitor of IDO1 and TDO enzymes). Both compounds were administered via oral gavage (P.O.) and diluted with 95% water+5% methylcellulose (0.5%) and stored at −20° C. Compound was prepared every 5 days. Methyl cellulose (95+5%) was used as control (“Veh”). Tumor growth was evaluated every 2 days by measuring tumor volume with calipers according to the following formula: tumor volume=width^2×length×0.5. At the end of the study, mice were sacrificed and the blood, tumor, and lymph nodes were collected and processed for KYN and tryptophan (TRP) measurement and immune cell assessment respectively.
Blood samples were collected via cardiac puncture from mice at the time of sacrifice and the Biochrom 30 amino acid analyzer (using ion exchange chromatography) was used to analyze free amino acids in samples. Briefly, 200 μL of serum extract and equal volume of 30% v/v deproteinization agent (sulfosalicylic acid) were mixed and vortexed for 10 s. Samples were then incubated at 55° C. for 20 min, spin down at 2500 g for 20 min at 4° C. Supernatant were collected, filtered through a 0.22 μm filter, and injected into the Biochrom 30. Values were reported compared to normal ranges in controls. Samples used in ion exchange chromatography are separated in an analytical fashion with an ion exchange column and buffers of increasing pH and ionic strength. After post-column derivatization with Ninhydrin, and colorimetric intensity recordings at 570 nm and 440 nm, the amino acids separated by chromatography were detected. Amino acid concentration was calculated by comparing the peak area of a particular amino acid to the peak area of an internal standard-AEC of known concentration, and then multiplying by its specific response factor from calibration.

[2] = tested on: LLC-CR (cisplatin-resistant cell tumours); assay: Tumor growth in syngeneic mouse model, LLC-CR allografts; assay type: in vivo; conditions: for tumor weight: LLC-CR allograft mice, FIG. 2C; for tumor volume, Mean: LLC-CR tumours, AT-0174 170 mg/kg, epacadostat 200 mg/kg P.O. daily; for Tumor growth: cisplatin-resistant tumor group, FIG. 2B
Protocol: Cisplatin resistant mouse cell lines (LLC-CR) were derived from LLC (mouse Lewis lung cancer cells (epidermoid carcinoma), ATCC) through treatment with increasing doses of cisplatin intermittently. LLC-CR clones were maintained in half GI50 dosage concentration. […] The cultures were observed daily and allowed to grow until they reached an initial cell density. […] After the cells recovered from cisplatin toxicity, they were treated again with increasing dosage of cisplatin for 24 h. These cells are seeded at 500-1000 cells per dish and cultured for 5-7 days. Clones are selected and expanded as well as tested for cisplatin sensitivity. Similar processes of exposure are carried out for a third and fourth time to generate higher resistant clones. At the end, the resistance clones (LLC-CR) were maintained in media completed with 1 μg/ml (half GI50 dosage) of cisplatin. […] Both compounds were administered via oral gavage (P.O.) and diluted with 95% water+5% methylcellulose (0.5%) and stored at −20° C. Compound was prepared every 5 days. Methyl cellulose (95+5%) was used as control (“Veh”). […] At the end of the study, mice were sacrificed and the blood, tumor, and lymph nodes were collected and processed for KYN and tryptophan (TRP) measurement and immune cell assessment respectively. In this example, LLC-CR from the Lewis lung mouse cell line (LLC; see methods) was used to determine, in vivo, the effect of IDO1 or dual IDO1/TDO inhibition on tumor growth. Mice were inoculated with either LLC or LLC-CR and treated with epacadostat (200 mg/kg P.O. 1/day) or AT-0174 (170 mg/kg P.O. 1/day).

[3] = tested on: immune cells in LLC tumors; assay: Flow cytometry immune cell analysis, LLC tumors; assay type: in vivo, mouse; conditions: AT-0174 170 mg/kg, epacadostat 200 mg/kg P.O. daily
Protocol: as §1
(§2) Tumors or lymph nodes were collected from mice and homogenized using syringe plungers. Mesh filters (40 μM) were placed on 15 mL or 50 mL tubes and the tissue suspensions were filtered. Cell filtrates were spun down at 1000 g. Red blood cell lysis buffer (1% […]) was added into the cell pellets and resuspended. Cell pellets were washed using PBS and isolated. Tumors were isolated using EasySep™ Mouse TIL (CD45) Positive Selection Kit (Stemcell Technologies). To detect regulatory T cells (T-regs) or natural killer cells (NKs), EasySep™ Mouse CD25 Regulatory T Cell Positive Selection Kit and EasySep™ Mouse CD49b Positive Selection Kit were used, respectively. Isolated cells were stained according to manufacturer's instructions. Cells were also fixed with 2% paraformaldehyde and analysis was done using the CytoFLEX Flow Cytometer (Beckman). All flow antibodies were obtained from Biolegend.

[4] = tested on: cisplatin-resistant LLC tumors; assay: Survival of mice with cisplatin-resistant LLC tumors; assay type: in vivo, mouse; conditions: for First Death / Maximal Survival / Median Survival Time: LLC-CR, C57B6/J mice, epacadostat 200 mg/kg, AT-0174 170 mg/kg P.O., anti-PD-1 10 mg/kg i.p. every 3 days
Protocol: To investigate the synergy of immune response on tumors between the dual IDO1/TDO inhibitor AT-0174 and an immune checkpoint inhibitor, the compound was tested in mice with cisplatin-resistant lung cancer tumors with and without with anti-PD1 antibody co-treatment.
LLC-CR (1×10^6) cells were subcutaneously injected into the flank of C57B6/J mice (6 mice per group, age 8 weeks) and allowed to grow for 3 days (average tumor size=50 mm^3) before being treated with IDO1 inhibitor epacadostat at 200 mg/kg daily (a supra-maximal dose) or with AT-0174 at 170 mg/kg. Both compounds were administered via oral gavage (P.O.) in 95% water+5% methylcellulose (0.5%). Anti-mouse PD-1 MAb clone RMPi-14 was used as checkpoint inhibitor and administered via intraperitoneal injection (i.p.) at a dose of 10 mg/kg every 3 days.

[5] = tested on: immune cells in LLC-CR tumors; assay: Flow cytometry immune cell analysis, LLC-CR tumors; assay type: in vivo, mouse; conditions: AT-0174 170 mg/kg, epacadostat 200 mg/kg P.O. daily
Protocol: as §1, §2

SMILES | KYN/TRP Ratio [1] | Kynurenine [1] | Tyrptophan [1] | tumor weight [2] | tumor volume, Mean ([2]; day 1) [mm^3] | tumor volume, Mean ([2]; day 2) [mm^3] | tumor volume, Mean ([2]; day 3) [mm^3] | tumor volume, Mean ([2]; day 4) [mm^3] | tumor volume, Mean ([2]; day 5) [mm^3] | tumor volume, Mean ([2]; day 6) [mm^3] | tumor volume, Mean ([2]; day 7) [mm^3] | tumor volume, Mean ([2]; day 8) [mm^3] | tumor volume, Mean ([2]; day 9) [mm^3] | tumor volume, Mean ([2]; day 10) [mm^3] | tumor volume, Mean ([2]; day 11) [mm^3] | tumor volume, Mean ([2]; day 12) [mm^3] | tumor volume, Mean ([2]; day 13) [mm^3] | tumor volume, Mean ([2]; day 15) [mm^3] | Tumor growth [2] | CD3^+ CD8^+ T-Effector [3] | further results
Nc1noc2nc(Cl)c(F)cc12 [Compound 66, 6-Chloro-5-fluoroisoxazolo[5,4-b]pyridin-3-amine] | 1.11 ± 0.17 | 64.2 ± 9.3 | 59.2 ± 4.4 | Significant reduction in tumor weight | 57.0 | 93.0 | 102.0 | 115.0 | 135.0 | 153.0 | 185.0 | 198.0 | 213.0 | 228.0 | 272.0 | 280.0 | 310.0 | 360.0 | significantly reduced | 5.38 ± 0.79 | tumor volume, Mean ([2]; day 14): 345.0 mm^3; CD3^+ CD49^+ NKG2D^+ NK Cells [3]: 3.58 ± 0.70; CD4^+ CD25^+ FoxP3^+ T-regs [3]: 10.05 ± 0.79; effect on survival ([4]; LLC-CR mice, given alone): increased survival to a greater extent than the selective agent; First Death [4]: 36 days; Maximal Survival [4]: 43 days; Median Survival Time [4]: 36 days; CD3^+ CD8^+ T-Effector [5]: 8.13 ± 0.94; CD3^+ CD49^+ NKG2D^+ NK Cells [5]: 7.44 ± 0.62; CD4^+ CD25^+ FoxP3^+ T-regs [5]: 5.75 ± 1.53
NS(=O)(=O)NCCNc1nonc1C(=NO)Nc1ccc(F)c(Br)c1 [Epacadostat, epacadostat, reference compound] | 1.35 ± 0.23 | 74.6 ± 7.7 | 58.6 ± 5.6 | reduction of the total tumor weight | 57.0 | 89.0 | 96.0 | 126.0 | 137.0 | 158.0 | 212.0 | 291.0 | 340.0 | 390.0 | 430.0 | 490.0 | 511.0 | 565.0 | significantly reduced | 5.16 ± 0.65 | CD3^+ CD49^+ NKG2D^+ NK Cells [3]: 2.66 ± 0.57; CD4^+ CD25^+ FoxP3^+ T-regs [3]: 13.27 ± 0.83; First Death [4]: 24 days; Maximal Survival [4]: 35 days; Median Survival Time [4]: 25 days; CD3^+ CD8^+ T-Effector [5]: 4.06 ± 0.63; CD3^+ CD49^+ NKG2D^+ NK Cells [5]: 2.38 ± 0.42; CD4^+ CD25^+ FoxP3^+ T-regs [5]: 12.60 ± 0.94
